Experimental data as given in US5516790A, “Synthesis and application of alkyl-substituted dibenzofurans as antitumorigenic agents” (Texas A&M University System Technology Licensing Office, priority 1994, dated 1996).
Where two headings read alike, the source gives them in different places.

Assays:
[1] = tested on: estrogen receptor; details: rat, in vivo; cited from earlier work
[2] = tested on: MCF-7 human breast cancer cells; details: Biegel, 1990; cited from earlier work
[3] = tested on: estrogen receptor (ER); format: in vivo, female Sprague/Dawley rats
Procedure: (§1) TCDD or MCDF was co-administered with a second dose of estradiol and the animals were killed 48-hours later. A second group of animals was similarly treated with corn oil, TCDD, MCDF, or TCDD plus MCDF, all administered in corn oil at 10 ml/kg and terminated 72 hours later.
(§2) The animals were terminated by cervical dislocation. Livers were perfused with ice-cold TEDG buffer (10 mM Tris-HCl, 1.5 mM EDTA-4Na, 1 mM dithiothreitol, 10% glycerol (v/v), pH 7.4). Following perfusion in situ, livers were removed, weighed, and homogenized in ice-cold TEDG buffer. Uteri were also removed, weighed, and homogenized in ice-cold buffer. The homogenates were then centrifuged at 800×g […] for 15 minutes and the nuclear pellets were stored at -80° C. The supernatants were further centrifuged at 180,000×g for 1.5 hour. The cytosolic supernatant was also stored at -80° C. Estrogen and progesterone receptor levels were determined within 7 days.
(§3) Estrogen and progesterone receptor levels were determined by the hydroxyapatite assay as described by Clark et al. (J. Steroid, Biochem., 16, 323-328 (1982)). […] Following the incubations, samples were counted and specific binding was calculated by subtraction of nonspecific from total binding. Assuming one steroid molecule binds to one estrogen/progesterone receptor, the number of moles of receptor can be calculated given the specific activity of the radioligand. […] Significant differences were determined by ANOVA.

[4] = tested on: progesterone receptor (PR); format: in vivo, female Sprague/Dawley rats
Procedure: as §1, §2, §3

[5] = tested on: female rat uterus; format: in vivo, female Sprague/Dawley rats
Procedure: as §1, §2

[6] = tested on: progesterone receptor; details: rat, in vivo; cited from earlier work
[7] = tested on: nuclear ER; details: cited from earlier work
[8] = tested on: 34-kDa protein; format: cell-based, human; details: for Protein Secretion, 34-kDa: 2880 min
Procedure: (§4) On day 0, the media was removed and the cells were rinsed two times with PBS. […] The cells were allowed to incubate for 48 h. […] After 6 h, the media was removed, 10 μl was counted and the remaining media was used for analysis of secreted proteins.
(§5) The secreted proteins were analyzed by sodium dodecyl sulfate (SDS) polyacrylamide gel electrophoresis; 30 μl of the media was mixed with an equal volume of buffer containing SDS, β-mercaptoethanol, glycerol, Tris and bromophenol blue. The samples were heated for 2 minutes in a boiling water bath and 50 μl of each sample was loaded onto a 1.5 mm thick 12% acrylamide slab gel (containing 0.075% bisacrylamide) with a 3% stacking gel (containing 0.15% bisacrylamide). The gels were run at […] overnight and processed for fluorography (using Enhance: Dupont) and exposed to Kodak X-OMAT film for 10 days at -80° C. The molecular weights of the proteins were estimated by their mobility relative to a set of standard proteins with known molecular weights.
(§6) The incorporation of ^35 S-methionine into the 34-kDa, 52-kDa and 160-kDa proteins was estimated by scanning the films using a Zeineh Soft Laser Scanning Densitometer (model SLR-20/10) from Biomedical Instruments,Inc. The percentage of the area of the scans due to the particular protein was then compared between the experimental and control samples and the results are presented as means ± SD for at least three samples per treatment group.

[9] = tested on: 52-kDa protein; format: cell-based, human; details: MCDF
Procedure: as §4, §5, §6

[10] = tested on: 160-kDa protein; format: cell-based, human; details: for Protein Secretion, 160-kDa: 2880 min
Procedure: as §4, §5, §6

In the case of `Cc1cc(Cl)cc2c1oc1cc(Cl)cc(Cl)c12` [MCDF, 6-methyl 1,3,8-trichlorodibenzofuran], the “upregulation of uterine nuclear and cytosolic estrogen receptor levels by 17β-estradiol” value [1] is listed as “inhibits”, the “uterine and hepatic cytosolic and nuclear estrogen receptor levels” value [1] is listed as “dose response decrease” and the “17β-estradiol-induced growth of MCF-7 cells” value [2] is listed as “inhibits”. For the same compound, the “Hepatic ERc” value ([3]; MCDF 10 μmol/kg) was 6.6 ± 0.5 fmol/mg protein, the “Hepatic ERn” value ([3]; MCDF 10 μmol/kg) was 6.1 ± 1.0 fmol/mg protein and the “Uterine ERc” value ([3]; MCDF 10 μmol/kg) was 137.7 ± 11.6 fmol/mg protein. The “Uterine ERn” value ([3]; MCDF 10 μmol/kg) was 15.8 ± 1.9 fmol/mg protein, the “Hepatic ERc” value ([3]; MCDF 50 μmol/kg) was 4.6 ± 0.8 fmol/mg protein and the “Hepatic ERn” value ([3]; MCDF 50 μmol/kg) was 3.5 ± 0.6 fmol/mg protein. The “Uterine ERc” value ([3]; MCDF 50 μmol/kg) was 110.3 ± 6.6 fmol/mg protein, the “Uterine ERn” value ([3]; MCDF 50 μmol/kg) was 13.2 ± 2.1 fmol/mg protein and the “Hepatic ERc” value ([3]; MCDF 100 μmol/kg) was 3.1 ± 0.3 fmol/mg protein. The “Hepatic ERn” value ([3]; MCDF 100 μmol/kg) was 3.1 ± 0.7 fmol/mg protein, the “Uterine ERc” value ([3]; MCDF 100 μmol/kg) was 90.2 ± 11.2 fmol/mg protein and the “Uterine ERn” value ([3]; MCDF 100 μmol/kg) was 11.5 ± 1.0 fmol/mg protein. The “constitutive uterine hepatic estrogen receptors” value ([3]; MCDF 50 and 100 μmol/kg) was “dose dependent decrease”, the “Hepatic ERc” value ([3]; Table 11, cotreatment with E-2) was 8.1 ± 1.2 fmol/mg protein and the “Hepatic ERn” value ([3]; Table 11, cotreatment with E-2) was 3.6 ± 0.9 fmol/mg protein. For the same compound, the “Uterine ERc” value ([3]; Table 11, cotreatment with E-2) was 93.5 ± 4.0 fmol/mg protein, the “Uterine ERn” value ([3]; Table 11, cotreatment with E-2) was 18.5 ± 1.2 fmol/mg protein and the “Hepatic ERc” value ([3]; rat, in vivo) was 3.7 ± 1.1. For the same compound, the “Hepatic ERn” value ([3]; rat, in vivo) was 3.1 ± 0.2, the “Uterine ERc” value ([3]; rat, in vivo) was 67.8 ± 2.5 and the “Uterine ERn” value ([3]; rat, in vivo) was 13.0 ± 1.1. The “uterine and hepatic estrogen receptors and progesterone receptor levels, of corresponding levels with 17β-estradiol alone (1st of four values)” value ([3]; rat, in vivo) was 43%, the “uterine and hepatic estrogen receptors and progesterone receptor levels, of corresponding levels with 17β-estradiol alone (2nd of four values)” value ([3]; rat, in vivo) was 59% and the “Hepatic PRc” value ([4]; MCDF 10 μmol/kg) was 74.3 ± 8.1 fmol/mg protein. The “Hepatic PRn” value ([4]; MCDF 10 μmol/kg) was 8.9 ± 1.5 fmol/mg protein, the “Uterine PRc” value ([4]; MCDF 10 μmol/kg) was 980 ± 34.6 fmol/mg protein and the “Uterine PRn” value ([4]; MCDF 10 μmol/kg) was 390 ± 31.6 fmol/mg protein. The “Hepatic PRc” value ([4]; MCDF 50 μmol/kg) was 66.0 ± 7.1 fmol/mg protein, the “Hepatic PRn” value ([4]; MCDF 50 μmol/kg) was 7.6 ± 1.0 fmol/mg protein and the “Uterine PRc” value ([4]; MCDF 50 μmol/kg) was 886 ± 20.1 fmol/mg protein. For the same compound, the “Uterine PRn” value ([4]; MCDF 50 μmol/kg) was 290 ± 30.2 fmol/mg protein, the “Hepatic PRc” value ([4]; MCDF 100 μmol/kg) was 40.2 ± 3.2 fmol/mg protein and the “Hepatic PRn” value ([4]; MCDF 100 μmol/kg) was 6.8 ± 1.0 fmol/mg protein. The “Uterine PRc” value ([4]; MCDF 100 μmol/kg) was 811 ± 26.4 fmol/mg protein, the “Uterine PRn” value ([4]; MCDF 100 μmol/kg) was 240 ± 26.1 fmol/mg protein and the “constitutive uterine hepatic progesterone receptor levels” value ([4]; MCDF 50 and 100 μmol/kg) was “dose dependent decrease”. For the same compound, the “Hepatic PRc” value ([4]; Table 11, cotreatment with E-2) was 108.9 ± 11.1 fmol/mg protein, the “Hepatic PRn” value ([4]; Table 11, cotreatment with E-2) was 6.4 ± 1.0 fmol/mg protein and the “Uterine PRc” value ([4]; Table 11, cotreatment with E-2) was 941.2 ± 45.1 fmol/mg protein. For the same compound, the “Uterine PRn” value ([4]; Table 11, cotreatment with E-2) was 602 ± 11.4 fmol/mg protein, the “Hepatic PRc” value ([4]; rat, in vivo) was 60.6 ± 8.4 fmol/mg protein and the “Hepatic PRn” value ([4]; rat, in vivo) was 5.1 ± 1.0 fmol/mg protein. The “Uterine PRc” value ([4]; rat, in vivo) was 805.3 ± 29.0 fmol/mg protein, the “Uterine PRn” value ([4]; rat, in vivo) was 205 ± 10.6 fmol/mg protein and the “uterine and hepatic estrogen receptors and progesterone receptor levels, of corresponding levels with 17β-estradiol alone (3rd of four values)” value ([4]; rat, in vivo) was 36%. For the same compound, the “uterine and hepatic estrogen receptors and progesterone receptor levels, of corresponding levels with 17β-estradiol alone (4th of four values)” value ([4]; rat, in vivo) was 75%, the “uterine wet weights compared to corn oil treated animals” value ([5]; MCDF alone) was “significantly decreased” and the “estradiol induced increase in uterine wet weight” value ([5]; co-treated animals) was “partially inhibited”. The “Uterine Wet Weight” value ([5]; cotreatment with E-2) was 0.255 ± 0.031 % body wt, the “Uterine Wet Weight” value ([5]; rat, in vivo) was 0.090 ± 0.113 % body wt and the “upregulation of uterine nuclear and cytosolic progesterone receptor levels by 17β-estradiol” value [6] was “inhibits”. For the same compound, the “uterine and hepatic cytosolic and nuclear progesterone receptor levels” value [6] was “dose response decrease”, the “17β-estradiol-induced accumulation of nuclear ER levels in MCF-7 cells” value [7] was “inhibits” and the “Protein Secretion, 34-kDa” value ([8]; 17β-estradiol + MCDF) was 78 % of Control. For the same compound, the “17β-estradiol-induced secretion of the 34-kDa protein” value ([8]; MCDF) was “inhibits”, the “Protein Secretion, 34-kDa” value ([8]; MCDF alone (100 nM)) was 80 % of Control and the “17β-estradiol-induced secretion of the 52-kDa protein” value [9] was “inhibits”. For the same compound, the “Protein Secretion, 160-kDa” value ([10]; 17β-estradiol + MCDF) was 76 % of Control, the “17β-estradiol-induced secretion of the 160-kDa protein” value ([10]; MCDF) was “inhibits” and the “Protein Secretion, 160-kDa” value ([10]; MCDF alone (100 nM)) was 72 % of Control.
